Experimental data published in paper PMC4795541, “A Rapid and Quantitative Flow Cytometry Method for the Analysis of Membrane Disruptive Antimicrobial Activity” (PLoS ONE, 2016).
≈ marks a conversion by molar mass, not a printed value. Marks after values point to notes of the source that are not given here. Where a SMILES comes first, the peptide text is derived from it. Where no end group is shown, it is not given here. [ ]: non-standard residue; d: D form. Phe(ol) = N[C@H](CO)Cc1ccccc1; Aib = CC(C)(N)C(=O)O

Legend:
E. coli ATCC 25922 [1] = test: MDC, flow cytometry Syto9/PI membrane disruption assay; assay type: cell-based, Escherichia coli; conditions: 90 min incubation, average of 3 assays ± SD
Source text: (§1) The bacterial strains; Fusobacterium nucleatum ATCC 25586, Streptococcus mutans Ingbritt, Staphylococcus aureus (MSSA) ATCC 29213; Staphylococcus aureus (MRSA) ATCC 43300; Enterococcus faecalis ATCC 29212; Enterobacter aerogenes ATCC 13048; Pseudomonas aeruginosa strain PAO1-LAC, ATCC 47085; Klebsiella pneumoniae ATCC 13883; Acinetobacter baumannii strain 2208, ATCC 19606; Escherichia coli ATCC 25922 lyophilised or glycerol stocks were obtained from the culture collection of the Oral Health Cooperative Research Centre, The Melbourne Dental School, University of Melbourne, Australia. These strains were selected for this study as they are widely used in antimicrobial studies and are considered to be important pathogens and major targets for antibiotic resistant studies. […] After overnight incubation, 0.5–2.0 mL of the starter culture was used to inoculate the appropriate fresh broth (200 mL) and growth monitored at 650 nm using a spectrophotometer (model 275E; Perkin-Elmer, Sydney, Australia) with culture purity checked by microscopic examination and culture. Bacteria were harvested during late exponential growth phase and viability and bacteria/mL determined using a BacLight viability kit (Invitrogen, Sydney, Australia) and a Quanta SC-MPL flow cytometer (Beckman coulter Pty, Ltd, Sydney, Australia). […]

[2] = test system: A. baumannii strain 2208, ATCC 19606; test: as above; assay type: cell-based, Acinetobacter baumannii; conditions: 90 min incubation, average of 3 assays ± SD
Source text: as §1

K. pneumoniae ATCC 13883 [3] = conditions: K. pneumoniae ATCC 13883; 90 min incubation; average of 3 assays ± SD
How it was run: (§2)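 Values are minimum inhibitory, bactericidal and membrane-disruptive concentrations after a 90-min, 37°C incubation of late-exponential bacteria with serially diluted peptides. Media and atmosphere were matched to each strain: Luria Broth aerobically, and Todd Hewitt broth under anaerobic conditions for S. mutans.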

E. coli ATCC 25922 [4] = conditions: E. coli ATCC 25922; 90 min incubation; average of 3 assays ± SD
How it was run: as §2

[5] = test system: P. aeruginosa strain PAO1-LAC, ATCC 47085; test: MDC, flow cytometry Syto9/PI membrane disruption assay; assay type: cell-based, Pseudomonas aeruginosa; conditions: 90 min incubation, average of 3 assays ± SD
Source text: as §1

E. faecalis ATCC 29212 [6] = test: as above; assay type: cell-based, Enterococcus faecalis; conditions: 90 min incubation, average of 3 assays ± SD
Source text: as §1

K. pneumoniae ATCC 13883 [7] = test: as above; assay type: cell-based, Klebsiella pneumoniae; conditions: 90 min incubation, average of 3 assays ± SD
Source text: as §1

[8] = test system: S. aureus (MRSA) ATCC 43300; conditions: S. aureus (MRSA) ATCC 43300; 90 min incubation; average of 3 assays ± SD
Source text: (§3) The bacterial strains; Fusobacterium nucleatum ATCC 25586, Streptococcus mutans Ingbritt, Staphylococcus aureus (MSSA) ATCC 29213; Staphylococcus aureus (MRSA) ATCC 43300; Enterococcus faecalis ATCC 29212; Enterobacter aerogenes ATCC 13048; Pseudomonas aeruginosa strain PAO1-LAC, ATCC 47085; Klebsiella pneumoniae ATCC 13883; Acinetobacter baumannii strain 2208, ATCC 19606; Escherichia coli ATCC 25922 lyophilised or glycerol stocks were obtained from the culture collection of the Oral Health Cooperative Research Centre, The Melbourne Dental School, University of Melbourne, Australia. These strains were selected for this study as they are widely used in antimicrobial studies and are considered to be important pathogens and major targets for antibiotic resistant studies. Bacteria were grown aerobically and maintained by passage at ambient temperature (E. coli, K. pneumoniae, A. baumannii and S. aureus strains) or at 37°C (P. aeruginosa, E. faecalis and E. aerogenes) on horse blood agar (10% v/v defibrinated horse blood, 4.4% w/v Oxoid Blood Agar Base No. 2). S. mutans and F. nucleatum were grown anaerobically (MK3 anaerobic workstation, Don Whitley Scientific Limited, England) and maintained by passage at 37°C on Todd Hewitt agar (3.6% w/v Oxoid Todd-Hewitt Broth, 1.5% w/v sucrose, 1.5% w/v BactoTM Agar, 0.8% w/v Oxoid Yeast Extract) or horse blood agar, respectively. For the antimicrobial peptide assays a 20 mL starter culture was produced by taking single colonies from blood or Todd Hewitt agar plates, respectively, to inoculate either: Luria Broth (LB; 1% w/v BactoTM Tryptone, 1% w/v NaCl, 0.5% w/v Oxoid Yeast Extract, pH 7.5, Thermo Scientific Pty, Ltd, Sydney, Australia) for bacteria; E. coli, K. pneumoniae, P. aeruginosa, A. baumannii, E. faecalis, E. aerogenes and S. aureus which were grown aerobically at 37°C, or Todd Hewitt broth (3.6% w/v Oxoid Todd-Hewitt Broth, 1.5% w/v sucrose, 0.8% w/v Oxoid Yeast 9 Extract) for S. mutans, or Brain Heart Infusion broth (BHI; 3.7% w/v Oxoid BHI, 0.05% w/v L-cysteine) for F. nucleatum which were both grown anaerobically at 37°C. After overnight incubation, 0.5–2.0 mL of the starter culture was used to inoculate the appropriate fresh broth (200 mL) and growth monitored at 650 nm using a spectrophotometer (model 275E; Perkin-Elmer, Sydney, Australia) with culture purity checked by microscopic examination and culture. Bacteria were harvested during late exponential growth phase and viability and bacteria/mL determined using a BacLight viability kit (Invitrogen, Sydney, Australia) and a Quanta SC-MPL flow cytometer (Beckman coulter Pty, Ltd, Sydney, Australia).
(§4) Antibacterial assays were undertaken to determinate the minimum inhibitory concentration (MIC), minimum bactericidal concentration (MBC) and minimum membrane disruptive concentration (MDC) of each of the antimicrobial peptides (AMP) and AMP analogues (S1 Table). For each bacterim a stock solution (2.5 × 10^6 cells/mL) in the respective media was made and an aliquot incubated with AMPs within 15 minutes from viable cell count and stock preparation. All AMPs were dissolved in DMSO and a 500 μM stock solution prepared by adding the respective media and serial dilutions (250–0.244 μM) of the AMP in media (100 μL/well) made just prior addition of bacteria. […] One hundred microliter aliquots of the bacterial stock solution (2.5 × 10^5 cells/well) were added to the AMP serial dilutions and incubated at 37°C for 90 min. Assay preparation and incubations were conducted in aerobic or anaerobic conditions dependent on the bacteria. Bacteria were also incubated in the absence of AMP to serve as a growth control for the assay. After the 90 minute incubation period the antimicrobial activity (MIC, MBC and MDC) was determined as follows;
(§5) For MIC the CLSI broth microdilution assay was followed as we have previously described.

E. aerogenes ATCC 13048 [9] = conditions: E. aerogenes ATCC 13048; 90 min incubation; average of 3 assays ± SD
Source text: as §3, §4, §5

[10] = test system: P. aeruginosa strain PAO1-LAC, ATCC 47085; conditions: P. aeruginosa PAO1-LAC, ATCC 47085; 90 min incubation; average of 3 assays ± SD
Source text: as §3, §4, §5

[11] = test system: S. aureus (MSSA) ATCC 29213; conditions: S. aureus (MSSA) ATCC 29213; 90 min incubation; average of 3 assays ± SD
Source text: as §3, §4, §5

K. pneumoniae ATCC 13883 [12] = conditions: K. pneumoniae ATCC 13883; 90 min incubation; average of 3 assays ± SD; remark: listed apart in the source
Source text: as §3, §4, §5

[13] = test system: A. baumannii strain 2208, ATCC 19606; conditions: A. baumannii strain 2208, ATCC 19606; 90 min incubation; average of 3 assays ± SD
Source text: as §3, §4, §5

E. faecalis ATCC 29212 [14] = conditions: E. faecalis ATCC 29212; 90 min incubation; average of 3 assays ± SD
Source text: as §3, §4, §5

E. coli ATCC 25922 [15] = conditions: E. coli ATCC 25922; 90 min incubation; average of 3 assays ± SD; remark: listed apart in the source
Source text: as §3, §4, §5

E. aerogenes ATCC 13048 [16] = test: MDC, flow cytometry Syto9/PI membrane disruption assay; assay type: cell-based, Enterobacter aerogenes; conditions: 90 min incubation, average of 3 assays ± SD
Source text: as §1

[17] = test system: S. aureus (MSSA) ATCC 29213; test: as above; assay type: cell-based, Staphylococcus aureus; conditions: 90 min incubation, average of 3 assays ± SD
Source text: as §1

Compound | MDC (E. coli ATCC 25922 [1]) [µM] | MDC [2] [µM] | MBC (K. pneumoniae ATCC 13883 [3]) [µM] | MBC (E. coli ATCC 25922 [4]) [µM] | MDC [5] [µM] | MDC (E. faecalis ATCC 29212 [6]) [µM] | MDC (K. pneumoniae ATCC 13883 [7]) [µM] | MIC [8] [µM] | MIC (E. aerogenes ATCC 13048 [9]) [µM] | MIC [10] | MIC [11] [µM] | MIC (K. pneumoniae ATCC 13883 [12]) [µM] | MIC [13] | MIC (E. faecalis ATCC 29212 [14]) | MIC (E. coli ATCC 25922 [15]) | MDC (E. aerogenes ATCC 13048 [16]) [µM] | MDC [17] [µM]
CC(=O)NC(C)(C)C(=O)N1CCC[C@H]1C(=O)NC(C)(C)C(=O)N[C@@H](C)C(=O)NC(C)(C)C(=O)N[C@@H](C)C(=O)N[C@@H](CCC(N)=O)C(=O)NC(C)(C)C(=O)N[C@H](C(=O)NC(C)(C)C(=O)NCC(=O)N[C@@H](CC(C)C)C(=O)NC(C)(C)C(=O)N1CCC[C@H]1C(=O)N[C@H](C(=O)NC(C)(C)C(=O)NC(C)(C)C(=O)N[C@@H](CCC(=O)O)C(=O)N[C@@H](CCC(N)=O)C(=O)N[C@H](CO)Cc1ccccc1)C(C)C)C(C)C [Alamethicin] (Ac-[Aib]P[Aib]A[Aib]AQ[Aib]V[Aib]GL[Aib]PV[Aib][Aib]EQ[Phe(ol)]; N-terminus assumed) | >250 | >250 | >250 | >250 | >250 | 48.4 ± 10.9 | >250 | 50.8 ± 3.5 (≈ 99.8 µg/mL) | >250 | >250 µM | 31.4 ± 7.4 (≈ 61.7 µg/mL) | >250 | 142.9±19.6^e μM | 30.1±9.6^e μM | >250 µM | >250 | 30.3 ± 8.2
GIGKFLHSAKKFGKAFVGEIMNS-NH2 [Magainin II] | – | – | 142.3 ± 19.5 | 48.1 ± 12.4 | – | – | – | >250 | >250 | 26.1±1.2^e μM | >250 | 132.2 ± 28.5 | 15.1±1.53^e μM | >250 µM | 29.5±3.7^e μM | – | –
